Experimental data reported in US20240239774A1, “SOLUBLE ADENYLYL CYCLASE (SAC) INHIBITORS AND USES THEREOF” (Cornell University, priority 2021, published 2024).
Several values for one entry are separate records, joined by “and”; a condition that tells them apart may be missing. Identical values can stand only once. Entries after “also recorded” stand apart in the source; their conditions may differ.

Experiments:
[1] = Serum levels after single i.p. injection; format: in vivo, mouse; details: single intraperitoneal (i.p.) injection
human sperm [2] = experiment: Flagellar beat analysis of single sperm; details: stimulation with 25 mM NaHCO3; 0.2 μM Example 1 (FIG. 13), 10 nM Example 133
Excerpt: Motile sperm were allowed to swim up into the HTF layer, while immotile sperm, as well as other cells or tissue debris, did remain in the ejaculate fraction.

fertility of male mice = experiment: Timed mating of inhibitor-injected male mice; format: in vivo, mouse; details: for Contraceptive efficacy: compared to vehicle-injected control
Experimental: Single-housed naïve (i.e., uninjected and virgin) male and female C57B1/6 mice were acclimatized to reverse light cycle (dark: 11 am to 11 pm) for at least two weeks. […] Pregnancy and litter size were assessed in two ways. Either females were sacrificed 7 days following mating and implanted embryos counted, or females were permitted to go to term (21 days) and pups counted. A subset of the pups (both male and female) born from breakthrough pregnancies were permitted to mature and their fertility assessed in standard matings.

epididymal mouse sperm [3] = experiment: Ex vivo cAMP in epididymal sperm from injected mice; details: 50 mg/kg i.p.; for bicarbonate-induced cAMP increase ex vivo: sperm isolated one hour after injection, minimally diluted
Experimental: Sperm (50 μl) isolated at indicated time points (between 1 hour and 24 hours post-injection) were incubated in […] (1:20 dilution) or 450 μl (1:200 dilution) non-capacitating or capacitating TYH media for 12 minutes. Intracellular cAMP levels were quantified using the Direct cAMP ELISA (Enzo) as above.

epididymal mouse sperm [4] = experiment: Ex vivo sperm motility (CASA) from injected mice; format: in vivo; details: for sperm motility ex vivo: one hour post-injection, diluted 1:200 in inhibitor-free media
Experimental: For ex vivo assessment of mouse sperm from inhibitor-injected mice, sperm (25 μl) isolated at the indicated time points (1 hour to 24 hours post-injection) were loaded on a […] Leja slide (Hamliton Thorne) and placed on a microscope stage at 37° C. Sperm movements of 10 fields of at least 500 sperm were examined using computer-assisted sperm analysis (CASA) via Hamilton-Thorne digital image analyzer (IVOS II, Hamilton Thorne Research, Beverly, MA) with the following parameters: 30 frames, frame rate: 60 Hz, cell size: 30-170 μm^2.

mouse sperm [5] = experiment: Intracellular cAMP in sperm in vitro; format: cell-based; details: for bicarbonate-induced cAMP rise: 5 μM Example 1 or 10 nM Example 133, capacitating media, 12 minutes
Experimental: (§1) cAMP generation was measured in mouse and human sperm. For mouse sperm, aliquots of 2×10^6 mouse sperm were incubated for 12 minutes in the presence or absence of sAC inhibitor in non-capacitating or capacitating TYH buffer. For human sperm, aliquots of 2×10^6 human sperm were incubated for 30 minutes in the presence or absence of sAC inhibitor in non-capacitating or capacitating HTF buffer. In both cases, 0.1% DMSO was used as vehicle control.
(§2) After 5 min, 150 μl of sperm/inhibitor mix was diluted into 1.35 ml non-capacitating or capacitating media with no inhibitor. After 12 minutes (mouse sperm) or 30 minutes (human sperm), sperm were sedimented by centrifugation at 2,000×g for 3 minutes and lysed in 200 μl HCl for 10 minutes. Sperm lysates were centrifuged at 2,000×g for 3 minutes and the cAMP in the supernatant was acetylated and quantified using the Direct cAMP ELISA (Enzo).

human sperm [6] = experiment: Intracellular cAMP in sperm in vitro; format: cell-based; details: for bicarbonate-induced cAMP rise: 5 μM Example 1 or 10 nM Example 133, capacitating media
Experimental: as §1, §2

mouse sperm [7] = experiment: Flagellar beat analysis of single sperm; format: cell-based; details: stimulation with 25 mM NaHCO3; 5 μM Example 1 or 10 nM Example 133
Experimental: An inverted dark-field video microscope (IX73; Olympus) with a 10× objective (mouse sperm) and a 20× objective (human sperm) (UPLSAPO, NA 0.8; Olympus) was combined with a high-speed camera (ORCA Fusion; Hamamatsu). Dark-field videos were recorded with a frame rate of 200 Hz. The temperature of the heated stage was set to 37° C. (stage top incubator WSKMX; TOKAI HIT).
An inverted dark-field video microscope (IX73; Olympus) with a 10×objective (mouse sperm) or a 20×objective (human sperm) (UPLSAPO, NA 0.8; Olympus) was combined with a high-speed camera (ORCA Fusion; Hamamatsu). Dark-field videos were recorded with a frame rate of 200 Hz. The temperature of the heated stage was set to 37° C. (stage top incubator WSKMX; TOKAI HIT). The images were preprocessed with the imageJ plugin SpermQ Preparator (Gaussian blur with sigma 0.5 px; Subtract background method with radius 5 px) and analyzed using the ImageJ plugin SpermQ [Reference 84]. The beat frequency was determined from the highest peak in the frequency spectrum of the curvature time course, obtained by Fast Fourier Transform.

human sperm [8] = experiment: Human sperm hyperactivation (CASA); format: cell-based; details: for hyperactivation of human sperm in vitro: capacitating media, inhibitor present; for inhibition of hyperactivation following dilution into inhibitor-free media: preincubation with 10 μM Example 1 or 100 nM Example 133, diluted 1:100
Experimental: For human sperm, hyperactivation was assessed via CASA following incubation for 1 hour in non-capacitating HTF buffer or capacitating HTF buffer supplemented with 25 mM HCO3 and 5 mg/ml BSA in the presence or absence of the indicated concentration of sAC inhibitor; 0.1% DMSO was used as vehicle control. For rescue experiments, sperm were incubated in the presence of 5 mM db-cAMP and 500 μM IBMX. 8 μl sperm suspension was placed onto a microscope slide (Gold Seal, Erie Scientific, Portsmouth, NH) and covered with a 18×18 mm coverslip (globe Scientific, Mahway, NJ) to create a […] imaging chamber. CASA was performed following analysis guidelines provided by the company, i.e., 30 frames were acquired at a rate of 60 Hz, at least 200 sperm were analyzed per condition. The following parameters were measured: mean path velocity (VAP, μm/sec), curvilinear velocity (VCL, μm/sec), straight-line velocity (VSL, μm/sec), amplitude of lateral head displacement (ALH, μm), and beat cross frequency (BCF, Hz). Human sperm were considered hyperactivated when presenting VCL ≥150 μm/sec, LIN <50%, and ALH ≥[…].
Motility parameters were determined 1 to 45 minutes post dilution, DMSO-treated non-capacitated and capacitated human sperm were used as control. To calculate the percentage of inhibition, the hyperactivation percentage of sperm diluted in inhibitor-containing- or inhibitor-free media was normalized to the hyperactivation percentage of vehicle-treated capacitated sperm at the respective time point and subtracted from 100%.

[9] = 50 mg/kg i.p. to males, mating time 8 hours
[10] = 50 mg/kg i.p. to males, mating time 5 hours
[11] = 50 mg/kg i.p. to males, mating time 11 hours
[12] = 50 mg/kg i.p., mating 4 days, 1 week post-injection (recovery of fertility)
[13] = preincubation 5 min in 5 μM Example 1 or 10 nM Example 133, then dilution (legend 1:10; text 100-fold)

Compound	time to maximum serum levels (C max) [1]	bicarbonate-induced change in flagellar beating / beat frequency (human sperm [2])	Pregnancy pairings (pregnancies per total pairings) (fertility of male mice; [9])	Pregnancy rate (fertility of male mice; [9])	Contraceptive efficacy (fertility of male mice; [9])	bicarbonate-induced cAMP increase ex vivo (epididymal mouse sperm [3])	sperm motility ex vivo (epididymal mouse sperm [4]; 50 mg/kg i.p.)	bicarbonate-induced cAMP rise (mouse sperm [5])	bicarbonate-induced cAMP rise (human sperm [6])	bicarbonate-induced change in flagellar beating / beat frequency (mouse sperm [7])	hyperactivation of human sperm in vitro (human sperm [8])	inhibition of hyperactivation following dilution into inhibitor-free media (human sperm [8])	further results
Cc1c(Cc2ccccc2)c(-c2cc(Cl)nc(N)n2)nn1C [Example 1, 4-(4-benzyl-1,5-dimethyl-pyrazol-3-yl)-6-chloro-pyrimidin-2-amine]	≤ 7.5 min	prevents bicarbonate-induced changes in flagellar beating pattern	(14/45)	31.1%	25%	absent	indistinguishable from sperm isolated from vehicle-injected mice	blocks the bicarbonate-induced cAMP rise	blocks the bicarbonate-induced cAMP rise	prevents bicarbonate-induced changes in flagellar beating pattern	blocked hyperactivation	lost	bicarbonate-responsive cAMP synthesis ex vivo (epididymal mouse sperm [3]; sperm diluted 1:200 ex vivo): restored
Nc1nc(Cl)cc(-c2nn(C(F)F)cc2Cc2ccccc2OCCN2CCOC[C@H]2CO)n1 [Example 133]	≤ 7.5 min	more potent than Example 1	(3/40)	7.2% and 7.5%	82%	absent	essentially immotile	completely block	completely block	more potent than Example 1	blocked hyperactivation	persisted	mouse behavior, movements and mating behaviors (fertility of male mice; 50 mg/kg i.p.): did not adversely affect mouse behavior; Pregnancy pairings (pregnancies per total pairings) (fertility of male mice; [10]): (3/92); Pregnancy rate (fertility of male mice; [10]): 3.3% and 3.2%; Contraceptive efficacy (fertility of male mice; [10]): 90%; Pregnancy pairings (pregnancies per total pairings) (fertility of male mice; [11]): (7/45); Pregnancy rate (fertility of male mice; [11]): 16% and 15.6%; Contraceptive efficacy (fertility of male mice; [11]): 65%; Pregnancy pairings (pregnancies per total pairings) (fertility of male mice; [12]): (13/14); Pregnancy rate (fertility of male mice; [12]): 93% and 92.9%; cAMP responsiveness ex vivo following dilution (epididymal mouse sperm [3]; 9 hours post-injection, diluted 1:200): partially recovered; cAMP response ex vivo following dilution (epididymal mouse sperm [3]; sperm isolated 1 hour or 4.5 hours post-injection, diluted 1:200): remained inhibited; sperm that recovered (progressive) motility (epididymal mouse sperm [4]; 50 mg/kg i.p., 9 hours post injection, diluted 1:200): 20%; cytotoxicity to sperm (epididymal mouse sperm [4]; exogenous membrane-permeable cAMP rescued motility): not cytotoxic; inhibition of bicarbonate-induced cAMP synthesis after dilution into inhibitor-free media (mouse sperm [5]; [13]): survived a 100-fold dilution; also recorded: inhibits capacitation induced cAMP rise in diluted sperm; inhibition of bicarbonate-induced cAMP synthesis after dilution into inhibitor-free media (human sperm [6]; [13]): survived a 100-fold dilution; also recorded: inhibits capacitation induced cAMP rise in diluted sperm
